# From PMC3723632, “A Multi-targeted Drug Candidate with Dual Anti-HIV and Anti-HSV Activity” (PLoS Pathogens, 2013)
# Tests used:
# CXCR4 or CXCR3 = test: Flow cytometry of CXCR4 and CXCR3 expression on PBMC; format: cell-based, human; details: data not shown
# Method: PBMC were cultured in the presence of adefovir, tenofovir, and PMEO-DAPym and incubated at 37°C in a humidified, 5% CO2-controlled atmosphere. The expression of cellular activation markers was measured after 3 days of culture. Briefly, after washing the cells with PBS containing 2% FCS, we incubated them with PerCP-conjugated anti-CD4 mAb (clone SK3) in combination with PE-conjugated anti-CD25, anti-CD69, or anti-HLA-DR mAbs for 30 min at room temperature. For aspecific background staining, cells were stained in parallel with Simultest Control IgG γ1/γ2a and PerCP-conjugated mouse IgG1. Finally, the cells were washed with PBS, fixed with 1% formaldehyde solution, and analyzed with a FACSCalibur (BD Biosciences, San Jose, CA); data were acquired with CellQuest software and further analyzed with the FLOWJO software (Tree Star, San Carlos, CA). The expression of the chemokine receptors was measured after 24 h, and PBMC were incubated with PerCP-conjugated anti-CD4 mAb (clone SK3) in combination with APC-conjugated anti-CXCR4 mAb (clone 12G5) and PE-conjugated anti-CCR5 (clone 2D7) or anti-CXCR3 (clone 1C6). To evaluate the biological effects of the β-chemokines produced by drug-treated PBMC, freshly isolated PBMC were incubated for 1 h at 37°C with supernatants collected from PBMC cultures treated with compounds for 24 h. […]
# HSV-2 (NS and RV-194) = test: Virus yield reduction assay in HEL cells, HSV-2 clinical isolates; details: for EC90: Human alphaherpesvirus 2, HEL
# Method: These assays were carried out in HEL cell monolayers at different times post infection. […] After 2 h at 37°C, the cells were washed and medium containing different concentrations of PMEO-DAPym (in duplicate) was added. Following 24, 48, and 72 h of incubation, we released the viruses by freeze-thawing and then titrated them using a plaque assay in HEL cells.
# PBMC [1] = test: Flow cytometry of activation markers on PBMC; format: cell-based, human; details: 72 h exposure
# Method: Figure 10 Expression of activation markers on PBMCs treated with adefovir, tenofovir, or PMEO-DAPym. PBMCs were incubated with adefovir, tenofovir, or PMEO-DAPym for 3 days. The mitogenic lectin PHA (at 2 µg/ml) was included as a positive control. We measured cell surface expression of CD4 and the activation markers CD69 (top panel), CD25 (middle panel), and HLA-DR (bottom panel) using flow cytometry with the […] CD4-specific mAb (clone SK3) and the phycoerythrin-labeled CD69, CD25, HLA-DR-specific mAbs. Shown are means ± SEM from two independent experiments.
# PBMC were cultured in the presence of adefovir, tenofovir, and PMEO-DAPym and incubated at 37°C in a humidified, 5% CO2-controlled atmosphere. The expression of cellular activation markers was measured after 3 days of culture. […] Finally, the cells were washed with PBS, fixed with 1% formaldehyde solution, and analyzed with a FACSCalibur (BD Biosciences, San Jose, CA); data were acquired with CellQuest software and further analyzed with the FLOWJO software (Tree Star, San Carlos, CA). The expression of the chemokine receptors was measured after 24 h, and PBMC were incubated with PerCP-conjugated anti-CD4 mAb (clone SK3) in combination with APC-conjugated anti-CXCR4 mAb (clone 12G5) and PE-conjugated anti-CCR5 (clone 2D7) or anti-CXCR3 (clone 1C6). […]
# M/M cultures = test: Viability of M/M cultures; format: cell-based, human; details: 100 µg/ml
# Method: Monocyte/macrophage (M/M) lineage cells can be infected by HSV-2 and HIV-1. M/M reside in genital herpes lesions and are thought to be reservoirs of HIV [6], [23]. […] Lower concentrations were dose-dependently inhibitory, with EC50 values ranging between 0.02 and 0.2 µg/ml (Table 1, Table 3).
# PBMC [2] = test: PBMC viability (trypan blue dye exclusion, flow cytometry); format: cell-based, human; details: 20, 100 and 500 µg/ml
# HSV-1 and HSV-2 = test: Organotypic epithelial raft cultures of PHKs, virus production; format: cell-based; details: HSV-1 and HSV-2, 20 µg/ml
# Method: Figure 3 Inhibitory activities of tenofovir, adefovir, and PMEO-DAPym against laboratory HSV-1 and HSV-2 strains in organotypic epithelial raft cultures. Panels A (HSV-1) and B (HSV-2): Drugs at different concentrations were added to the raft cell cultures on the day of infection (10 days after initiation of differentiation). The drugs remained in the presence of the cells for 5 days until the rafts were frozen for determination of virus production with a plaque assay in HEL cell cultures. Error bars represent S.D.
# The epithelial cells were allowed to stratify. […] Virus production per raft was then calculated.
# HSV-2 (G) = tested on: HSV-2 (G); set-up: method as in PMID 22018238; details: tonsilar tissue; cited from earlier work
# HSV = tested on: HSV; set-up: method as in PMID 20643915, PMID 20709216; details: CAPRISA trial; cited from earlier work
smiles,measurement,setting,value
"Nc1cc(OCCOCP(=O)(O)O)nc(N)n1 [PMEO-DAPym, 6-phosphonylmethoxyethoxy-2,4-diaminopyrimidine]",downregulation of CXCR4 or CXCR3,CXCR4 or CXCR3,No downregulation
same,EC90,"HSV-2 (NS and RV-194); 24 h, Strain NS, moi = 1x10^-3, 24 hours",< 1 µg/mL
same,EC90,"HSV-2 (NS and RV-194); 24 h, Strain NS, moi = 1x10^-4, 24 hours",< 1 µg/mL
same,EC90,"HSV-2 (NS and RV-194); 24 h, Strain RV-194, moi = 1x10^-3, 24 hours",2.08 µg/mL
same,EC90,"HSV-2 (NS and RV-194); 24 h, Strain RV-194, moi = 1x10^-4, 24 hours",< 1 µg/mL
same,EC90,"HSV-2 (NS and RV-194); 48 h, Strain NS, moi = 1x10^-3, 48 hours",< 1 µg/mL
same,EC90,"HSV-2 (NS and RV-194); 48 h, Strain NS, moi = 1x10^-4, 48 hours",< 1 µg/mL
same,EC90,"HSV-2 (NS and RV-194); 48 h, Strain RV-194, moi = 1x10^-3, 48 hours",< 1 µg/mL
same,EC90,"HSV-2 (NS and RV-194); 48 h, Strain RV-194, moi = 1x10^-4, 48 hours",< 1 µg/mL
same,EC90,"HSV-2 (NS and RV-194); 72 h, Strain NS, moi = 1x10^-3, 72 hours",1.34 µg/mL
same,EC90,"HSV-2 (NS and RV-194); 72 h, Strain NS, moi = 1x10^-4, 72 hours",< 1 µg/mL
same,EC90,"HSV-2 (NS and RV-194); 72 h, Strain RV-194, moi = 1x10^-3, 72 hours",1 µg/mL
same,EC90,"HSV-2 (NS and RV-194); 72 h, Strain RV-194, moi = 1x10^-4, 72 hours",< 1 µg/mL
same,EC99,"HSV-2 (NS and RV-194); Strain NS, moi = 1x10^-3, 24 hours",3.0 µg/mL
same,EC99,"HSV-2 (NS and RV-194); Strain NS, moi = 1x10^-3, 48 hours",3.28 µg/mL
same,EC99,"HSV-2 (NS and RV-194); Strain NS, moi = 1x10^-3, 72 hours",3.63 µg/mL
same,EC99,"HSV-2 (NS and RV-194); Strain NS, moi = 1x10^-4, 24 hours",3.6 µg/mL
same,EC99,"HSV-2 (NS and RV-194); Strain NS, moi = 1x10^-4, 48 hours",1.0 µg/mL
same,EC99,"HSV-2 (NS and RV-194); Strain NS, moi = 1x10^-4, 72 hours",2.3 µg/mL
same,EC99,"HSV-2 (NS and RV-194); Strain RV-194, moi = 1x10^-3, 24 hours",7.15 µg/mL
same,EC99,"HSV-2 (NS and RV-194); Strain RV-194, moi = 1x10^-3, 48 hours",1.0 µg/mL
same,EC99,"HSV-2 (NS and RV-194); Strain RV-194, moi = 1x10^-3, 72 hours",3.58 µg/mL
same,EC99,"HSV-2 (NS and RV-194); Strain RV-194, moi = 1x10^-4, 24 hours",< 1 µg/mL
same,EC99,"HSV-2 (NS and RV-194); Strain RV-194, moi = 1x10^-4, 48 hours",1.58 µg/mL
same,EC99,"HSV-2 (NS and RV-194); Strain RV-194, moi = 1x10^-4, 72 hours",2.62 µg/mL
same,"upregulation of cell activation markers (HLA-DR, CD25, CD69 and others)",PBMC [1],none of the cell activation markers
same,effect on the viability of M/M cultures,M/M cultures,No effect on the viability
same,PBMC viability,PBMC [2],did not affect PBMC viability
"C[C@H](Cn1cnc2c(N)ncnc21)OCP(=O)(O)O [Tenofovir, 9-(2-phosphonylmethoxypropyl)adenine]",reduction of herpesvirus replication,HSV-1 and HSV-2,< 0.5 log10
same,concentration that comparably inhibited HSV-2 replication,HSV-2 (G),240 µg/mL
same,prevention of HSV infection,HSV,51%
